Laboratory results as given in paper PMC6369212, “Cytochrome P450 3A Enzymes Are Key Contributors for Hepatic Metabolism of Bufotalin, a Natural Constitute in Chinese Medicine Chansu” (Frontiers in Pharmacology, 2019).
Where “and” joins values, the source holds several entries; their conditions need not be identical. Equal values may be shown once.

Assays:
HLM [1] = assay: Material balance of BFT and its metabolite in HLM; format: in vitro ADME, human
Experimental: A single metabolite of BFT was identified following incubation with HLM (0.3 mg protein/ml) in the presence of the NADPH-generating system (Figure 1). […] The metabolite was characterized by UFLC-DAD-ESI-MS, and the formation of monohydroxylbufotalin was NADPH-, time-, and microsome-dependent. […] The [M+H]^+ and [M+CH3CN+H]^+ ion of the metabolite at m/z in HLM were 461.3 and 502.4, respectively.

[2] = tested on: BFT 5β-hydroxylation in pooled HLM; assay: Chemical inhibition of BFT 5β-hydroxylation by selective CYP inhibitors in HLM; format: in vitro ADME, human; conditions: BFT 10 μM, HLM 0.25 mg protein/ml
Experimental: (§1) Human liver microsomes or CYPs were incubated with NADPH-generating system, which included NADP^+ (1 mM), glucose-6-phosphate (10 mM), glucose-6-phosphate dehydrogenase (1 unit/ml), and 4 mM MgCl2 in 100 mM potassium phosphate buffer (pH 7.4) in a total incubation volume of 200 μl. After a 3 min preincubation at 37°C, the reaction was initiated by the addition of NADPH-generating system and further incubated at 37°C for 30 min. The reaction was quenched with 100 μl of ice-cold acetonitrile. The samples were chilled, spun at 20,000 × g for 20 min at 4°C. Aliquots of supernatants were then stored at -20°C until analysis. All incubations throughout the study were done in three experiments conducted in duplicate with S.D. values generally below 10%.

in vitro = conditions: human; for Km: pH 7.4, Km, BFT 5β-hydroxylation, HLM 0.25 mg protein/mL, 30 min, biphasic kinetics
Experimental: as §1
(§2) The formation rates of 5-HBFT was within the linear range of the incubation time and protein concentration. […] BFT was incubated with pooled HLM (0.25 mg protein/mL) for 30 min, or with recombinant CYP3A4 (5 nM) and CYP3A5 (10 nM) for 30 min. […] The kinetic constants were calculated with GraphPad Prism software, version 6.0, and the results were graphically represented by Eadie–Hofstee plots.
(§3) (1) v=Vmax 1[S]/Kmax 1+[S]+Vmax 2[S]/Kmax 2+[S]
(§4) where v is the rate of the reaction, [S] is the substrate concentration, Vmax is the maximum velocity estimate, Km is the substrate affinity constant.
(§5) Km values are μM, Vmax values were in nmol/min/mg protein for liver microsomes, or in nmol/min/nmol CYP for CYP3A. […] Each value was the mean ± S.D. of three determinations performed in duplicate.

recombinant human CYP3A5 = recombinant human CYP3A5 (Homo sapiens, UniProt P20815); assay: Kinetic analysis of 5β-hydroxylation in recombinant CYP3A5
Experimental: as §1
(§6) BFT was incubated with pooled HLM (0.25 mg protein/mL) for 30 min, or with recombinant CYP3A4 (5 nM) and CYP3A5 (10 nM) for 30 min. […] The kinetic constants were calculated with GraphPad Prism software, version 6.0, and the results were graphically represented by Eadie–Hofstee plots.
(2) v=Vmax/1+(Km/[S])+([S]/Ksi)
(§7) where Ksi is the substrate inhibition constant.
as §5

recombinant human CYP3A4 = recombinant human CYP3A4 (Homo sapiens, UniProt P08684); assay: Kinetic analysis of 5β-hydroxylation in recombinant CYP3A4
Experimental: as §1, §2, §3, §4, §5

HLM [3] = tested on: HLM
Experimental: as §1, §2, §3, §4, §5

other P450 isoforms = assay: Reaction phenotyping of BFT hydroxylation with other recombinant P450 isoforms; format: in vitro ADME, human; conditions: BFT 3 and 100 μM, isoforms other than CYP3A4 and CYP3A5
Excerpt: BFT and BF were purchased from Shanghai Winherb Medical Technology Company (Shanghai, China). ABT, furafylline, sulfaphenazole, clomethiazole, omeprazole, 8-methoxypsoralen, ticlopidine, CYP3cide, glucose-6-phosphate dehydrogenase, D-glucose-6-phosphate, and NADP^+ were obtained from Sigma (St. Louis, MO, United States). Montelukast, quinidine, ketoconazole was purchased from Jianglai Biotechnology Co., Ltd. (Shanghai, China). The pooled HLMs (from 50 donors, lot no. X008067) were obtained from BioreclamationIVT (Baltimore, MD, United States). A panel of baculovirus expressed human P450s (CYP1A1, 1A2, 2A6, 2A13, 2B6, 2C8, 2C9, 2C19, 2D6, 2E1, 3A4, 3A5, 4F2, and 4F3), co-expressing NADPH-CYP reductase and cytochrome b5 were obtained from BD Gentest Corp (Woburn, MA, United States). All chemicals and solvents were of analytical grade.
[…] cDNA-expressed human P450 isoforms co-expressing NADPH-P450 reductase were used for assay of BFT hydroxylation activity.

[4] = tested on: CC(=O)O[C@H]1C[C@]2(O)[C@@H]3CC[C@@H]4C[C@@H](O)CC[C@]4(C)[C@H]3CC[C@]2(C)[C@H]1c1ccc(=O)oc1; assay: cells, lysate or membranes named; conditions: other: CYP3A5 10 nM, 30 min, substrate inhibition kinetics; pH 7.4; 37.0 °C
Experimental: as §1, §6
(2) v=Vmax/1+(Km/[S])+([S]/Ksi)
as §7, §5

[5] = CYP3A5 10 nM, 30 min, substrate inhibition kinetics
[6] = CYP3A4 5 nM, 30 min, biphasic kinetics
[7] = HLM 0.25 mg protein/mL, 30 min, biphasic kinetics

Sequence of recombinant human CYP3A4 (P08684 2-503 limits assumed): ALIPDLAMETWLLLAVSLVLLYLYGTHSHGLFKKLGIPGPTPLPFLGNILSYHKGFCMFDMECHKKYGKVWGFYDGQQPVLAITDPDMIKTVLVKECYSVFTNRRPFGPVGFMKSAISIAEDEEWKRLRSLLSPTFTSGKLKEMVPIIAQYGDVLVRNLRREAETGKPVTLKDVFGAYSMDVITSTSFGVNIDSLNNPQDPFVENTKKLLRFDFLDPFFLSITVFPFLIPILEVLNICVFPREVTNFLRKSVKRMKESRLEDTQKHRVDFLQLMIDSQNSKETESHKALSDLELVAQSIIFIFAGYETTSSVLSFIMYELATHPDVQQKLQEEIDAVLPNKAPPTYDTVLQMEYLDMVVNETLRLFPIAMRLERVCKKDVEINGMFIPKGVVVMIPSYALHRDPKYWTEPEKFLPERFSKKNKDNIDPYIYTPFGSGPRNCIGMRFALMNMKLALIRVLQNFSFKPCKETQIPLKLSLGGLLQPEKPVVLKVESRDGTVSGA
Sequence of recombinant human CYP3A5 (P20815 whole entry): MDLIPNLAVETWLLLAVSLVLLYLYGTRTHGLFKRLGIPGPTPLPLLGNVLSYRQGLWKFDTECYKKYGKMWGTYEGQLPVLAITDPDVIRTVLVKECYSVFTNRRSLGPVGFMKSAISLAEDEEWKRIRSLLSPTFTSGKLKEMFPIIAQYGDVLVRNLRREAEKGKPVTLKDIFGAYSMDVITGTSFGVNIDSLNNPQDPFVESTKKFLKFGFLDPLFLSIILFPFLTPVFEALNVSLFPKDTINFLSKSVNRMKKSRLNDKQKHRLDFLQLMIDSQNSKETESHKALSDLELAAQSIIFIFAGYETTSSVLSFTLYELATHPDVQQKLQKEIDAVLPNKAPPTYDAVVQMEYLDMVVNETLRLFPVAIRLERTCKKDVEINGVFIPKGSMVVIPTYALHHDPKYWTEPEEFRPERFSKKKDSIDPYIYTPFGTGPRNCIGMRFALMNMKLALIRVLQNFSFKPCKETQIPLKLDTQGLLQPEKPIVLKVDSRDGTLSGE

## CC(=O)OC1CC2(O)C3CCC4(O)CC(O)CCC4(C)C3CCC2(C)C1c1ccc(=O)oc1 (stereo not drawn) [5-HBFT, 5β-hydroxylbufotalin]
HLM [1]; time 0 min
  Compound (%), material balance: 0%
HLM [1]; time 30 min
  Compound (%), material balance: 11.1392%
HLM [1]; time 60 min
  Compound (%), material balance: 24.5928%

## Nn1nnc2ccccc21 [ABT, 1-aminobenzotriazole]
[2]
  inhibition of 5-HBFT formation in HLM: completely

## C[C@]12CC[C@H](O)C[C@H]1CC[C@@H]1[C@@H]2CC[C@]2(C)[C@@H](c3ccc(=O)oc3)CC[C@]12O [BF, bufalin, reference compound]
In vitro; pH 7.4
  Km at 30 min: 8 ± 0.52 µM

## CC(=O)O[C@H]1C[C@]2(O)[C@@H]3CC[C@@H]4C[C@@H](O)CC[C@]4(C)[C@H]3CC[C@]2(C)[C@H]1c1ccc(=O)oc1 [BFT, bufotalin]
Recombinant human CYP3A5; CYP3A5
  CLint, BFT 5β-hydroxylation: 1186.12
Recombinant human CYP3A5; [5]
  Ksi (substrate inhibition constant), BFT 5β-hydroxylation: 170.00 ± 12.69 µM
  Vmax, BFT 5β-hydroxylation: 3.45 nmol/min per nanomole P450
Recombinant human CYP3A5; CYP3A5, Eadie–Hofstee plot
  kinetic behavior of BFT 5β-hydroxylation: substrate inhibition kinetic
In vitro; high-affinity site (Km1)
  Km: 3.71 ± 2.68 µM
In vitro; low-affinity site (Km2)
  Km: 134 ± 72.2 µM
Recombinant human CYP3A4; [6]
  Vmax, high-affinity site (Vmax1), BFT 5β-hydroxylation: 6.87 per min/nmol P450 and 6.87 ± 3.59 per min/nmol P450
  Vmax, low-affinity site (Vmax2), BFT 5β-hydroxylation: 33.70 per min/nmol P450 and 33.70 ± 3.08 per min/nmol P450
Recombinant human CYP3A4; CYP3A4, Eadie–Hofstee plot
  kinetic behavior of BFT 5β-hydroxylation: biphasic kinetics
HLM [3]; [7]
  Vmax, high-affinity site (Vmax1), BFT 5β-hydroxylation: 33.31 per min/mg and 33.31 ± 12.64 per min/mg
  Vmax, low-affinity site (Vmax2), BFT 5β-hydroxylation: 107.30 per min/mg and 107.30 ± 11.77 per min/mg
HLM [3]; HLM, Eadie–Hofstee plot
  kinetic behavior of BFT 5β-hydroxylation: biphasic kinetics
HLM [1]; time 0 min
  Compound (%), material balance: 99.5%
HLM [1]; time 30 min
  Compound (%), material balance: 88.0247%
HLM [1]; time 60 min
  Compound (%), material balance: 73.5708%
Other P450 isoforms
  metabolite formation by other P450 isoforms: no metabolites were detected

## Cc1ccc(-c2c(-c3nn(C)c4ncnc(N5CC[C@H](N6CCCCC6)C5)c34)cnn2C)cc1 [CYP3cide]
[2]
  inhibition of 5-HBFT formation in HLM: ~90%

## recombinant human CYP3A5 (Homo sapiens)
[4]
  Km: 2.91 ± 0.24 µM
  kcat: 3.45 ± 0.09 nmol/min per nanomole P450
